The values below come from patent US8299021B2, “Macrocyclic inhibitors of hepatitis C virus replication” (InterMune, Inc., priority 2005, dated 2012).

The target of the experiment is T1, NS3-NS4 protease (full-length NS3/NS4A-2) (Hepatitis C virus genotype 1a, UniProt P27958).
T1 construct: Recombinant E. coli or Baculovirus full-length NS3 was diluted to 3.33 μM with assay buffer; made in house; host or cells: E. coli or baculovirus (insect cells)
In words: NS3-NS4 protease assay / NS3 inhibition assay (RETS1 substrate, fluorescence kinetic read). As to conditions: read-out: NS3-NS4 IC50. The class given is biochemical. On the procedure: NS3 complex formation with NS4A-2.
The appropriate amount of NS4A-2 to 8.3 mM in assay buffer was added to equal the volume of NS3 in step 2.1.1 (conversion factor—3.8 mg/272 μL assay buffer). The material was transferred to an eppendorf tube and place in water bath in 4° C. refrigerator.
After equilibration to 4° C., equal volumes of NS3 and NS4A-2 solutions were combined in an eppendorf tube, mix gently with a manual pipettor, and incubate mixture for 15 minutes in the 4° C. water bath.
After 15 minutes at 4° C., the NS3/NS4A-2 eppendorf tube was removed and place it in a room temperature water bath for 10 minutes. NS3/NS4A-2 was alliquoted at appropriate volumes and store at −80° C. (E. coli NS3 run at 2 nM in assay, aliquot at 25 μL. BV NS3 run at 3 nM in assay, aliquot at 30 μL).
Sample compounds were dissolved to 10 mM in DMSO then diluted to 2.5 mM (1:4) in DMSO.
The E. coli. […] Using the manual multichannel pipettor, careful not to introduce bubbles into the plate, add 50 μL assay buffer to wells A01-H01 of a black Costar 96-well polypropylene storage plate.
Using the manual multichannel pipettor, careful not to introduce bubbles into the plate, add 50 μL of diluted NS3/NS4A-2 from step 2.2.6 to wells A02-H12 of plate in step 2.2.7. Using the manual multichannel pipettor, careful not to introduce bubbles into the plate, transfer 25 μL of the wells in drug dilution plate in step 2.2.5 to corresponding wells in assay plate in step 2.2.8. Change tips on multichannel pipettor for each row of compounds transferred. Using the manual multichannel pipettor, careful not to introduce bubbles into the plate, mix the wells from the assay plate in step 2.2.9 by aspirating and dispensing 35 μL of the 75 μL in each well five times. Change tips on multichannel pipettor for each row of wells mixed. Cover plate with a polystyrene plate lid and pre-incubate the plate from step 2.2.10 containing NS3 protease and sample compounds 10 minutes at room temperature. While plate from step 2.2.11 is pre-incubating, dilute RETS1 substrate in a 15 mL polypropylene centrifuge tube.
After the plate in step is done pre-incubating, and using the manual multichannel, add 25 μL of substrate to all wells on the plate. Quickly mix the plate as in step 2.2.10, mixing 65 μL of the 100 μL in the wells.
Read the plate in kinetic mode on the Molecular Devices SpectraMax
IC50s are determined using a four parameter curve fit equation, and converted to Ki's using the following Km's:
where Ki=IC50/(1+[S]/Km))

Where two headings read alike, the source gives them in different places. A value given as a limit tells only on which side of the number the result lay.

T1 sequence (P27958 1027-1657): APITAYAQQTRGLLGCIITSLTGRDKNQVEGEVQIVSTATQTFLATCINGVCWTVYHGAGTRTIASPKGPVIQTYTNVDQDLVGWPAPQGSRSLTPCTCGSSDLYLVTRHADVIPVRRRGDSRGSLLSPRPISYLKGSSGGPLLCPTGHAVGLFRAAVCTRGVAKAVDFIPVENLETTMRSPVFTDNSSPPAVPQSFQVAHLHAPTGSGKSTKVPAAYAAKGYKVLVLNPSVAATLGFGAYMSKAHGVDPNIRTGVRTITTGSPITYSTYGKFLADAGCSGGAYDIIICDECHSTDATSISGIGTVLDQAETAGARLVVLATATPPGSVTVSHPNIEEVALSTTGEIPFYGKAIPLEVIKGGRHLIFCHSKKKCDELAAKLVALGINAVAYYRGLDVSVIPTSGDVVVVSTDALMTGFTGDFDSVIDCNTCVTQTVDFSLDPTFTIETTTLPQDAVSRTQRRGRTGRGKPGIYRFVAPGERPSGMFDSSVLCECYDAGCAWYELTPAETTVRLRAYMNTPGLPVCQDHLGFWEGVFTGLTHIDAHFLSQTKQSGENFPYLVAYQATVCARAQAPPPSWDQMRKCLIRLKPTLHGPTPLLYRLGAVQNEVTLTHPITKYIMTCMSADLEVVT

Usually IC50 stands for the point on the concentration scale where inhibition reaches its midpoint. Consider `CC(C)(C)OC(=O)N[C@H]1CCCCC/C=C\[C@@H]2C[C@@]2(C(=O)NS(=O)(=O)NC2CCC2)NC(=O)[C@@H]2CCCN2C1=O` [Compound 2214], for which the IC50 is less than 1 µM.
As to `CC(C)(C)OC(=O)N[C@H]1CCCCC/C=C\[C@@H]2C[C@@]2(C(=O)NS(=O)(=O)NC2CCCC2)NC(=O)[C@@H]2CCCN2C1=O` [Compound 2215], the IC50 is less than 1 µM.
For `CCNS(=O)(=O)NC(=O)[C@@]12C[C@H]1/C=C\CCCCC[C@H](NC(=O)OC(C)(C)C)C(=O)N1CCC[C@H]1C(=O)N2` [Compound 2216], the IC50 was less than 10 µM.
On the same count and under the same terms, the figure for `CCCNS(=O)(=O)NC(=O)[C@@]12C[C@H]1/C=C\CCCCC[C@H](NC(=O)OC(C)(C)C)C(=O)N1CCC[C@H]1C(=O)N2` [Compound 2217] is less than 1 µM; for `CC(C)CNS(=O)(=O)NC(=O)[C@@]12C[C@H]1/C=C\CCCCC[C@H](NC(=O)OC(C)(C)C)C(=O)N1CCC[C@H]1C(=O)N2` [Compound 2218] it is less than 0.1 µM.
On the same count and under the same terms, the figure for `CC(C)(C)OC(=O)N[C@H]1CCCCC/C=C\[C@@H]2C[C@@]2(C(=O)NS(=O)(=O)N2CCCCC2)NC(=O)[C@@H]2CCCN2C1=O` [Compound 2219] is less than 10 µM; for `CCC1CCCCN1S(=O)(=O)NC(=O)[C@@]12C[C@H]1/C=C\CCCCC[C@H](NC(=O)OC(C)(C)C)C(=O)N1CCC[C@H]1C(=O)N2` (stereo partly shown) [Compound 2220] it is less than 1 µM; for `COC(=O)C1CCCCN1S(=O)(=O)NC(=O)[C@@]12C[C@H]1/C=C\CCCCC[C@H](NC(=O)OC(C)(C)C)C(=O)N1CCC[C@H]1C(=O)N2` (stereo partly shown) [Compound 2221] it is less than 1 µM.
For the compound `CC(C)(C)OC(=O)N[C@H]1CCCCC/C=C\[C@@H]2C[C@@]2(C(=O)NS(=O)(=O)NC2CC2c2ccccc2)NC(=O)[C@@H]2CCCN2C1=O` (stereo partly shown) [Compound 2224], the half-maximal inhibitory concentration (IC50) is less than 10 µM.
Consider `CC1CCCCN1S(=O)(=O)NC(=O)[C@@]12C[C@H]1/C=C\CCCCC[C@H](NC(=O)OC(C)(C)C)C(=O)N1CCC[C@H]1C(=O)N2` (stereo partly shown) [Compound 2225], for which the IC50 was less than 10 µM.
Take `CC(C)(C)OC(=O)N[C@H]1CCCCC/C=C\[C@@H]2C[C@@]2(C(=O)NS(=O)(=O)Nc2ccc(Cl)c(Cl)c2)NC(=O)[C@@H]2CCCN2C1=O` [Compound 2234]: the IC50 is less than 1 µM.
Take `CCc1ccc(NS(=O)(=O)NC(=O)[C@@]23C[C@H]2/C=C\CCCCC[C@H](NC(=O)OC(C)(C)C)C(=O)N2CCC[C@H]2C(=O)N3)cc1` [Compound 2242]: the IC50 was less than 1 µM.
Turning to `COc1ccc(NS(=O)(=O)NC(=O)[C@@]23C[C@H]2/C=C\CCCCC[C@H](NC(=O)OC(C)(C)C)C(=O)N2CCC[C@H]2C(=O)N3)cc1` [Compound 2244], the IC50 is less than 0.1 µM.
Turning to `CC(C)(C)OC(=O)N[C@H]1CCCCC/C=C\[C@@H]2C[C@@]2(C(=O)NS(=O)(=O)NCC2CC2)NC(=O)[C@@H]2CCCN2C1=O` [Compound 2245], the 50% inhibitory concentration (IC50) is less than 0.1 µM.
Still for that read-out and setting: the figure for `CC(C)(C)OC(=O)N[C@H]1CCCCC/C=C\[C@@H]2C[C@@]2(C(=O)NS(=O)(=O)Nc2ccccc2)NC(=O)[C@@H]2CCCN2C1=O` [Compound 2246] is less than 1 µM.
Consider `CC(C)(C)OC(=O)N[C@H]1CCCCC/C=C\[C@@H]2C[C@@]2(C(=O)NS(=O)(=O)Nc2ccc(Cl)cc2)NC(=O)[C@@H]2CCCN2C1=O` [Compound 2247], for which the IC50 is greater than 10 µM.
On to `CN(CCc1ccccc1)S(=O)(=O)NC(=O)[C@@]12C[C@H]1/C=C\CCCCC[C@H](NC(=O)OC(C)(C)C)C(=O)N1CCC[C@H]1C(=O)N2` [Compound 2248], for which the IC50 is less than 10 µM.
Same read-out and setting: the figure for `CN(CC#N)S(=O)(=O)NC(=O)[C@@]12C[C@H]1/C=C\CCCCC[C@H](NC(=O)OC(C)(C)C)C(=O)N1CCC[C@H]1C(=O)N2` [Compound 2249] is less than 1 µM.
For the compound `C[C@H](NC(=O)[C@@]12C[C@H]1/C=C\CCCCC[C@H](NC(=O)OC(C)(C)C)C(=O)N1CCC[C@H]1C(=O)N2)c1ccccc1` [Compound 2301], where the note is “Table 22”, the IC50 is less than 10 µM.
Take `CC(C)(C)OC(=O)N[C@H]1CCCCC/C=C\[C@@H]2C[C@@]2(C(=O)NC2CCC2)NC(=O)[C@@H]2CCCN2C1=O` [Compound 2303]: the IC50 (Table 22) is less than 1 µM.
Regarding `CC(C)(C)OC(=O)N[C@H]1CCCCC/C=C\[C@@H]2C[C@@]2(C(=O)Nc2ccc(F)cc2)NC(=O)[C@@H]2CCCN2C1=O` [Compound 2304], the IC50 (Table 22) is less than 1 µM.
For the compound `CC(C)(C)OC(=O)N[C@H]1CCCCC/C=C\[C@@H]2C[C@@]2(C(=O)NC#N)NC(=O)[C@@H]2CCCN2C1=O` [Compound 2306], the IC50 (Table 22) was less than 1 µM.
As to `CC(C)(C)OC(=O)N[C@H]1CCCCC/C=C\[C@@H]2C[C@@]2(C(=O)NCc2ccccc2)NC(=O)[C@@H]2CCCN2C1=O` [Compound 2307], the IC50 (Table 22) is less than 1 µM.
Regarding `CC(C)(C)OC(=O)N[C@H]1CCCCC/C=C\[C@@H]2C[C@@]2(C(=O)NCc2ccc(Cl)cc2)NC(=O)[C@@H]2CCCN2C1=O` [Compound 2308], the IC50 (Table 22) was less than 1 µM.
The same measure, in the same setting: the figure for `CC(C)(C)OC(=O)N[C@H]1CCCCC/C=C\[C@@H]2C[C@@]2(C(=O)Nc2ccccc2Cl)NC(=O)[C@@H]2CCCN2C1=O` [Compound 2309] is less than 1 µM; for `CC(C)(C)OC(=O)N[C@H]1CCCCC/C=C\[C@@H]2C[C@@]2(C(=O)NCc2cccc(C(=O)O)c2)NC(=O)[C@@H]2CCCN2C1=O` [Compound 2310] it is less than 1 µM; for `C[C@@H](NC(=O)[C@@]12C[C@H]1/C=C\CCCCC[C@H](NC(=O)OC(C)(C)C)C(=O)N1CCC[C@H]1C(=O)N2)c1ccccc1` [Compound 2311] it is less than 1 µM.
On to `COc1cccc(NC(=O)[C@@]23C[C@H]2/C=C\CCCCC[C@H](NC(=O)OC(C)(C)C)C(=O)N2CCC[C@H]2C(=O)N3)c1` [Compound 2312], for which the IC50 (Table 22) is less than 1 µM.
Turning to `Cc1ccc([S@+]([O-])NC(=O)[C@@]23C[C@H]2/C=C\CCCCC[C@H](NC(=O)OC(C)(C)C)C(=O)N2C[C@H](OC(=O)N4Cc5ccccc5C4)C[C@H]2C(=O)N3)cc1` [Compound 2602], the IC50 (Table 25) is less than 10 µM.
On to `Cc1ccc([S+]([O-])NC(=O)C23CC2C=CCCCCCC(NC(=O)OC(C)(C)C)C(=O)N2CC(OC(=O)N4Cc5ccccc5C4)CC2C(=O)N3)cc1` (stereo not shown) [Compound 2603], for which, for the setting “Table 25”, the IC50 was less than 10 µM.
As to “Cyclopentyl (1aR,9S,19aR)-15-(3-chlorophenoxy)-10,18-dioxo-19a-(phenylsulfonylcarbamoyl)-1a,2,3,4,5,6,7,8,9,10,12,17,17a,18,19,19a-hexadecahydro-1H-2,5-diaza-bicyclo[13.1.0]hexadec-1(15)-eno[5,4-b]isoquinolin-9-ylcarbamate [Compound 2010]”, the 50% inhibitory concentration (IC50) is less than 10 µM.
